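Tested at 5 concentrations; 48 h exposure; 96-well plates; endpoints linearly interpolated, else capped at highest concentration. GI50 marks 50% less growth.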 Calls of active or inactive are those of the source. Rule as the data show it: active = GI50 up to about 1.1 µM and inactive = higher.
Legend:
Assay in all cases: DTP human tumour cell line panel, 48 h
A549 = tested on: A549
K562 = tested on: K562
COLO 205 = tested on: COLO 205
SN12C = tested on: SN12C
SF-539 = tested on: SF-539
Malme-3M = tested on: Malme-3M
HCT-116 = tested on: HCT-116
A498 = tested on: A498
HOP-92 = tested on: HOP-92
MCF7 = tested on: MCF7
SF-295 = tested on: SF-295
SK-MEL-28 = tested on: SK-MEL-28
ACHN = tested on: ACHN
SNB-19 = tested on: SNB-19
SK-OV-3 = tested on: SK-OV-3
NCI-H23 = tested on: NCI-H23
MDA-MB-231 = tested on: MDA-MB-231
RPMI-8226 = tested on: RPMI-8226
OVCAR-4 = tested on: OVCAR-4

Measured: GI50

C=C1C(=O)OC2/C=C(/CO)C3(O)CC(O)C(C)(CC(OC(=O)/C(C)=C/C)C12)O3 (configuration not stated)
inactive: A549 32.8 µM | K562 4.47 µM | COLO 205 4.73 µM | SN12C 15.7 µM | SF-539 23.9 µM | Malme-3M 10.2 µM | HCT-116 6.73 µM | A498 20.9 µM | HOP-92 9.91 µM | MCF7 6.73 µM | SF-295 36.3 µM | SK-MEL-28 7.64 µM | ACHN 6.82 µM | SNB-19 36.5 µM | SK-OV-3 21.4 µM | NCI-H23 13.6 µM | MDA-MB-231 15.3 µM | RPMI-8226 2.51 µM | OVCAR-4 22.3 µM

CCN(CC(=O)O)CC(=O)O
inactive: A549 > 100 µM | K562 > 100 µM | COLO 205 > 100 µM | SN12C > 100 µM | SF-539 > 100 µM | Malme-3M > 100 µM | HCT-116 > 100 µM | A498 > 100 µM | HOP-92 > 100 µM | MCF7 > 100 µM | SF-295 > 100 µM | SK-MEL-28 > 100 µM | ACHN > 100 µM | SNB-19 > 100 µM | SK-OV-3 > 100 µM | NCI-H23 > 100 µM | MDA-MB-231 > 100 µM | RPMI-8226 > 100 µM | OVCAR-4 > 100 µM

CN(C)CCN1C(=O)CC[C@@]2(C)C1=CC[C@@H]1[C@@H]2CC[C@@]2(C)[C@H]1CC[C@]2(C)O
inactive: A549 > 100 µM | K562 > 100 µM | COLO 205 > 100 µM | SN12C > 100 µM | SF-539 > 100 µM | Malme-3M > 100 µM | HCT-116 71.6 µM | A498 > 100 µM | HOP-92 > 100 µM | MCF7 > 100 µM | SF-295 > 100 µM | SK-MEL-28 > 100 µM | ACHN > 100 µM | SNB-19 > 100 µM | SK-OV-3 > 100 µM | NCI-H23 > 100 µM | MDA-MB-231 > 100 µM | RPMI-8226 > 100 µM | OVCAR-4 > 100 µM

From ChEMBL document CHEMBL1201862, “PubChem BioAssay data set” (2004)
